We go through two compounds from US20190353647A1, “NOVEL REAL-TIME MULTIPLEXED, MULTI-COLOR BIOLUMINESCENCE RESONANCE ENERGY TRANSFER ASSAY, APPARATUS, AND USES THEREOF” (Universite de Bordeaux, priority 2016, published 2019).

The assay deals with T1, TRPV1 (Homo sapiens, UniProt Q8NER1).
T1 construct: expressed in transfected cells; host or cells: HEK293T
The assay can be described thus: Intermolecular BRET assay, TRPV1-Luc/YFP-CaM in HEK293T cells. The assay is classed as cell-based. Conditions: TRPV1-Luc/YFP-CaM. From the text:
In order to generate the BRET constructs, super Yellow Fluorescent Protein 2 and Renilla Luciferase II were used to improve the brightness of the assay. They were referred as YFP and Luc for short in the rest of the manuscript. The cDNA of Luc and YFP were first cloned together using a three-piece ligation in the BamHI/XhoI site of pcDNA3.1(+) (Invitrogen, Carlsbad, Calif., USA), yielding two expression vectors pcDNA3.1 YFP-Luc where YFP was cloned in-fusion at the N-terminal of Luc, and pcDNA3.1 Luc-YFP where Luc was cloned in-fusion at the N-terminal of YFP. Both YFP and Luc were amplified by PCR from the pcDNA3-YFP-EPAC-Luc vector. Luc was cloned either at the N-terminal of YFP as a HindIII-EcoRI fragment (primers used: “Luc_HindIII_ATGN-term sense” and “Luc_no Stop_EcoRI_N-term antisense”) or at the COOH-terminal of YFP as an EcoRI-XhoI fragment (primer used: “Luc_EcoRI_ATG_C-term sense” and “Luc_XhoI_Stop_C-term antisense”). In parallel, YFP was cloned either at the N-terminal of Luc as a HindIII-EcoRI fragment (primers used: “YFP_HindIII_ATG_N-term sense” and “YFP_no Stop_EcoRI_N-term antisense”) or at the COOH-terminal of Luc as a EcoRI-XhoI fragment (primer used: “YFP_EcoRI_ATG_C-term sense” and “YFP_XhoI_Stop_C-term antisense”). The sequence joining Luc and YFP sequence encoded […] (SEQ ID NO: 18) as a linker, and contained an AgeI restriction site. The YFP-hTRPV1-Luc expression vector was obtained by subcloning the human TRPV1 cDNA from the pDONR201-hTRPV1 vector (Harvard Medical School PlasmID Repository, clone HsCD00081472) as an EcoRI PCR fragment in the EcoRI site of the vector pcDNA3.1 YFP-Luc (primer used: “hTRPV1_EcoRI_Fus_Sense” and “hTRPV1_EcoRI_Fus_antisense”). The hTRPV1-Luc expression vector was obtained by subcloning the cDNA of hTRPV1 as a HindIII-EcoRI fragment in place of the YFP in the HindIII-EcoRI site of the pcDNA3.1 YFP-Luc vector (primer used: “hTRPV1_HindIII_ATG_Sense” and “hTRPV1_EcoRI_Fus_antisense”). The Luc-hTRPV3 expression vector was obtained by subcloning the cDNA of hTRPV3 (Harvard Medical School PlasmID Repository, clone HsCD00341603) as a AgeI-XhoI fragment in place of the YFP in the AgeI-XhoI sites of the pcDNA3.1 Luc-YFP vector (primer used: “hTRPV3_AgeI_ATG_Sense” and “hTRPV3_Stop_XhoI_antisense”). The hTRPV4-Luc expression vector was obtained by subcloning the cDNA of hTRPV4 as a BamHI-AgeI fragment in place of the YFP in the BamHI-AgeI site of the pcDNA3.1 YFP-Luc vector (primer used: “hTRPV4_BamHI_ATG_Sense” and hTRPV4_AgeI_Fus_antisense”). In each case, the sequence joining the cDNA of interest and either Luc or YFP sequence encoded […] (SEQ ID NO: 18) as a linker.
The cDNA of mAmetrine (Plasmid #54660) and LssmOrange (Plasmid #37130) were obtained from AddGene plasmid repository. The cDNA of aquamarine, mAmetrine and LssmOrange were all subcloned as a HindIII-EcoRI fragment in place of the YFP in the HindIII-EcoRI site of the pcDNA3.1 YFP-Luc vector (primer used: “YFP_HindIII_ATG_N-term sense” and “YFP_no Stop_EcoRI_N-term antisense”) to yield pcDNA3.1 FP-Luc expression vectors (“FP” being any fluorescent protein between aquamarine, mAmetrine and LssmOrange). […] A similar strategy was used to obtain the FP-CaM expression vector using the pcDNA3.1 FP-Luc expression vector instead of the pcDNA3.1 YFP-Luc.
HEK293T cells were maintained in Dulbecco's modified Eagle's medium-high Glucose (DMEM) (D6429, Sigma) supplemented with 10% fetal bovine serum, 100 units mL-1 penicillin and streptomycin. Twenty-four hours before transfection, cells were seeded at a density of 500,000 cells in 6-well dishes. Transient transfections were performed using polyethylenimine (PEI, linear, Mr 25,000; catalogue number 23966 Polysciences, Inc., Warrington, Pa., USA) with a PEI:DNA ratio of 4:1. Usually, 0.1-0.25 μg of the donor constructions and 1.75-1.9 μg of the acceptors constructions were transfected for the BRET measurement.
A general note: BRET reads energy transfer from a luciferase to a nearby fluorophore.

T1 sequence (Q8NER1 whole entry): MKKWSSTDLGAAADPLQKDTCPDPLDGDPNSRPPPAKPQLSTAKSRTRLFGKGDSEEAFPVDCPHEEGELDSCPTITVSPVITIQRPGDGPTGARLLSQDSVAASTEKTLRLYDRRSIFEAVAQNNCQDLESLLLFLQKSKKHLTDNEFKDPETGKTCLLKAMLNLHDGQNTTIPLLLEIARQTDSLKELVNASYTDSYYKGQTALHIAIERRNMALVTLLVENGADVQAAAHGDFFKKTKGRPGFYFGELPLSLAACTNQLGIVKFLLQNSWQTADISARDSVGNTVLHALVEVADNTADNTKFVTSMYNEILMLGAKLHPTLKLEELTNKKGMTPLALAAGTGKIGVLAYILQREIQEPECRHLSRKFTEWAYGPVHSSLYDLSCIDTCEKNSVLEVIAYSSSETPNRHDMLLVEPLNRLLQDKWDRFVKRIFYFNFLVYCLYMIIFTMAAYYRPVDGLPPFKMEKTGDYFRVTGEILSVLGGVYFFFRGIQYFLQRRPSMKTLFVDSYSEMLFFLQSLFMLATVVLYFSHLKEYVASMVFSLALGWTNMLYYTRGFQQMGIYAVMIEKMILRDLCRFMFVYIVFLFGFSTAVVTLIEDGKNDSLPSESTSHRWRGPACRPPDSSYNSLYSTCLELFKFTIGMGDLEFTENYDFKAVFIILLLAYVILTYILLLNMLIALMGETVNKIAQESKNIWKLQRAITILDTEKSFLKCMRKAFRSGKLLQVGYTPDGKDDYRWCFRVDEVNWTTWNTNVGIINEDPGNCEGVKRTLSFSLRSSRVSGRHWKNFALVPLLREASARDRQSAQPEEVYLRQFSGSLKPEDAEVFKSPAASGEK

With `C[C@H](CCC(=O)O)C[C@H](C)C[C@H](C)C(=O)/C=C(\O)[C@H](C)C[C@H](C)C/C=C/[C@@H](C)[C@@H](O)[C@@H](C)[C@@H](O)C[C@@H]1CC[C@@](C)([C@H]2CC[C@@](C)([C@@H](C)O)O2)O1` [ionomycin], the “Change of basal BRET signal” value is “no effect”.

On to `CC(=O)OCOC(=O)CN(CC(=O)OCOC(C)=O)c1ccccc1OCCOc1ccccc1N(CC(=O)OCOC(C)=O)CC(=O)OCOC(C)=O` [BAPTA-AM], for which the “Change of basal BRET signal” value was “severely diminished”. Besides, the “Effect on CAPS-induced BRET increase” value (intermolecular test) was “abolished”.
